Measured values published in publication PMC5429769, “Rational development of Stafib-2: a selective, nanomolar inhibitor of the transcription factor STAT5b” (Scientific Reports, 2017).

Key:
Assay type in all cases: binding
[1] = target: T1, STAT6 (Homo sapiens, UniProt P42226); test: Fluorescence polarization assay, STAT6
T1 sequence (P42226 1-847): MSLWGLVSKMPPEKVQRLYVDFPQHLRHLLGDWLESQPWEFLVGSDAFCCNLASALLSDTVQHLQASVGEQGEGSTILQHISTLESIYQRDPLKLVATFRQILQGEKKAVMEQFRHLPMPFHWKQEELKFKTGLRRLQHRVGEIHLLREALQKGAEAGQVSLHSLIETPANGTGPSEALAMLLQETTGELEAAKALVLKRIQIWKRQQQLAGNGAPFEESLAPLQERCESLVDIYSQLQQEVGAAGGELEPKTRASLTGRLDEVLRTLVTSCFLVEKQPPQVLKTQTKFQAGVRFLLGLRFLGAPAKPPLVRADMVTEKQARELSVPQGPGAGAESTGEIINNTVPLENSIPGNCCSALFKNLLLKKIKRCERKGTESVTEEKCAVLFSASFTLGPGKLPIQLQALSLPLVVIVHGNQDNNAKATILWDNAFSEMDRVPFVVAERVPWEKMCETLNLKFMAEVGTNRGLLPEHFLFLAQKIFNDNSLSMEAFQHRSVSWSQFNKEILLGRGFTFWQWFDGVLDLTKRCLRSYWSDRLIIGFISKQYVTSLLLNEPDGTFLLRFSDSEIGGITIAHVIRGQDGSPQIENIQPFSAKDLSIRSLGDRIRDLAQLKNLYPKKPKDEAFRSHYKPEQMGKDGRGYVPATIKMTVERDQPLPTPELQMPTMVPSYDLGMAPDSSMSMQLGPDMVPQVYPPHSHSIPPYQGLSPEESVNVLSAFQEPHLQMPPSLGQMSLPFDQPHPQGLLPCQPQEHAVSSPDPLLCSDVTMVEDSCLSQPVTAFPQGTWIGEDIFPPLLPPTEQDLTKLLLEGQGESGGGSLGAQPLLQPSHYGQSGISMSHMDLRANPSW

[2] = target: T2, STAT5b Arg618Ala (Homo sapiens, UniProt P51692, R618A); test: Isothermal titration calorimetry, STAT5b Arg618Ala; details: ITC, 25 °C
T2 sequence (P51692 1-787 R618A): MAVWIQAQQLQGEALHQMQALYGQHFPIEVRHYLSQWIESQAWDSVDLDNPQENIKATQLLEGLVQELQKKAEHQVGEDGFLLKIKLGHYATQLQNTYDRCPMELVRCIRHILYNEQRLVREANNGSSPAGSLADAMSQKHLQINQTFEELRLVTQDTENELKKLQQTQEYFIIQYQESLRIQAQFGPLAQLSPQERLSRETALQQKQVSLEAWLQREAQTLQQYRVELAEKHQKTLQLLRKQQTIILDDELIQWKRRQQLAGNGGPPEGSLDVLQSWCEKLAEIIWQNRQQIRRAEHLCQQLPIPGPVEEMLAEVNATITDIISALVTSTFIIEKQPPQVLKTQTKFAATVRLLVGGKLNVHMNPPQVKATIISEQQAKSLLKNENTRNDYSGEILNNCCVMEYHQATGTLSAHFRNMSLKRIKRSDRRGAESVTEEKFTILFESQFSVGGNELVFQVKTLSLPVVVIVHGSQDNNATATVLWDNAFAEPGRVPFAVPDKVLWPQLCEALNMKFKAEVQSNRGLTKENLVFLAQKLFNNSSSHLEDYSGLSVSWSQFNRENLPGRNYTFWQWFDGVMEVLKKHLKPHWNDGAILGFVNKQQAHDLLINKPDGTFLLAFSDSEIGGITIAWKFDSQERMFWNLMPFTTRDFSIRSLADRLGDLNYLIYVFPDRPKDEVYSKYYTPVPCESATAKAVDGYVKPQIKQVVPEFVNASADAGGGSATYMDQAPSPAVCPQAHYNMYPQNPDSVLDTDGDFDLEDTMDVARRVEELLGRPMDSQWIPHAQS

[3] = target: T3, STAT1 (Homo sapiens, UniProt P42224); test: Fluorescence polarization assay, STAT1
T3 sequence (P42224 1-750): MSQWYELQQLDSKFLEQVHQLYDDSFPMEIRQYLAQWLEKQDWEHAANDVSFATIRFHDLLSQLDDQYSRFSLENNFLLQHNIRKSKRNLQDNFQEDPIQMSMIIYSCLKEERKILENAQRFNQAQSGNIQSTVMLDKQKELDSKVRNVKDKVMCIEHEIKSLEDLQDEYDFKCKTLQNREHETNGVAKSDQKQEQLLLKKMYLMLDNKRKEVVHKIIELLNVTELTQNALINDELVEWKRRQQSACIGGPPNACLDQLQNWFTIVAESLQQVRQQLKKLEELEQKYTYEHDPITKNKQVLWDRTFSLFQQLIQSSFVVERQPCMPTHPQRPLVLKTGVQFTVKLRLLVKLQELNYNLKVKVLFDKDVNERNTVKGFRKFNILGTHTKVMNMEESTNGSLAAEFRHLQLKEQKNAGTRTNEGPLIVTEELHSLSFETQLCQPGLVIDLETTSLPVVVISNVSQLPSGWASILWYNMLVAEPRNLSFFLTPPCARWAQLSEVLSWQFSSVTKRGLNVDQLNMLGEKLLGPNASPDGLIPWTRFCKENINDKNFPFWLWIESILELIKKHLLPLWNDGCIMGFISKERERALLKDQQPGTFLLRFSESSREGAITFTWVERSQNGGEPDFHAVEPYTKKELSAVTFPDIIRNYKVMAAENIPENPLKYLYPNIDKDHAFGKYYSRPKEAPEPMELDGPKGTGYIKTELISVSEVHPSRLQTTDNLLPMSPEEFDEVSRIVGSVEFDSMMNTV

[4] = system: STAT3; test: Fluorescence polarization assay, STAT3; details: at 40 µM
[5] = converted from IC50 using the published equation

Structure (SMILES): O=C(COc1ccc(C(=O)Nc2ccc(Oc3ccccc3)cc2)cc1)NCc1ccc(OP(=O)(O)O)c(OP(=O)(O)O)c1 [compound 4, 4-((2-(4-((4-phenoxyphenyl)carbamoyl)phenoxy)acetamido)methyl)-1,2-phenylene bis(dihydrogen phosphate)]
- Ki [1, 5]: 11.7 ± 1.2 µM
- IC50 ([1]; fluorescence polarization): 23.7 ± 2.5 µM
- Kd [2]: 5.6 ± 1.7 µM
- Ki [3, 5]: 22.8 ± 1 µM
- IC50 ([3]; fluorescence polarization): 46 ± 2 µM
- STAT3 maximum inhibition [4]: 30 ± 3%
